As usually defined, the EC50 is the concentration giving half of the maximal effect. A low value points to an effect from little substance.

Experimental findings from US12077537B2 (Gilead Sciences, Inc., priority 2020, dated 2024) are described below.

In the experiment the test system is HIV-IIIb. Description: Antiviral assay in MT4 cells. It counts as cell-based. The following applies: Human immunodeficiency virus 1, MT4, 120 h; MT-4 cells mixed with HIV-IIIb at m.o.i. 0.003; 5 days at 37° C.; CellTiter-Glo luminescence; 50% decrease in signal, a measure of HIV-1 replication. As for the experimental part: Antiviral Assay in MT4 Cells For the antiviral assay, 40 μL of a concentration required to achieve a final effective 1× test concentration of 3-fold serially diluted compound in culture medium with 10% FBS was added to each well of a 384-well plate (10 concentrations) in quadruplicate. MT-4 cells were next mixed with HIV-IIIb at an m.o.i of 0.003 for 1 hour, after which time 35 μL of virus/cell mixture (2000 cells) was immediately added to each well containing 40 μL of diluted compound. The plates were then incubated at 37° C. for 5 days. After 5 days of incubation, 25 μl of 2× concentrated CellTiter-Glom Reagent (catalog #G7571, Promega Biosciences, Inc., Madison, WI) was added to each well containing MT-4 cells. Cell lysis was carried out by incubating at room temperature for 10 min and then chemiluminescence was read.
In general terms: ATP-based viability assays read luminescence as a measure of living cells.
As for `CC1(O)CN(c2nc3nc([C@H](Cc4cc(F)cc(F)c4)NC(=O)Cn4nc(C(F)(F)F)c5c4C(F)(F)[C@@H]4C[C@H]54)c(-c4cccc5c4CNC5=O)cc3s2)C1` [Compound 39, 2-((3bS,4aR)-5,5-difluoro-3-(trifluoromethyl)-3b,4,4a,5-tetrahydro-1H-cyclopropa[3,4]cyclopenta[1,2-c]pyrazol-1-yl)-N—((S)-2-(3,5-difluorophenyl)-1-(2-(3-hydroxy-3-methylazetidin-1-yl)-6-(1-oxoisoindolin-4-yl)thiazolo[4,5-b]pyridin-5-yl)ethyl)acetamide], a half-maximal response (EC50) required 14.6 nM.
For `NC(=O)c1cc(-c2cc3sc(-c4ccccc4)nc3nc2[C@H](Cc2cc(F)cc(F)c2)NC(=O)Cn2nc(C(F)(F)F)c3c2C(F)(F)[C@@H]2C[C@H]32)ccc1F` [Example 118, 5-(5-((S)-1-(2-((3bS,4aR)-5,5-difluoro-3-(trifluoromethyl)-3b,4,4a,5-tetrahydro-1H-cyclopropa[3,4]cyclopenta[1,2-c]pyrazol-1-yl)acetamido)-2-(3,5-difluorophenyl)ethyl)-2-phenylthiazolo[4,5-b]pyridin-6-yl)-2-fluorobenzamide], the response was half-maximal at 303 nM (EC50).
To `Cn1nc(NS(C)(=O)=O)c2cccc(-c3cc4sc(NCC(C)(C)O)nc4nc3[C@H](Cc3cc(F)cc(F)c3)NC(=O)Cn3nc(C(F)F)c4c3C(F)(F)[C@@H]3C[C@H]43)c21` [Compound 55, 2-((3bS,4aR)-3-(difluoromethyl)-5,5-difluoro-3b,4,4a,5-tetrahydro-1H-cyclopropa[3,4]cyclopenta[1,2-c]pyrazol-1-yl)-N—((S)-2-(3,5-difluorophenyl)-1-(2-((2-hydroxy-2-methylpropyl)amino)-6-(1-methyl-3-(methylsulfonamido)-1H-indazol-7-yl)thiazolo[4,5-b]pyridin-5-yl)ethyl)acetamide] belongs 13.5 nM; to `NC(=O)c1cc(-c2cc3sc(NC4COC4)nc3nc2[C@H](Cc2cc(F)cc(F)c2)NC(=O)Cn2nc(C(F)F)c3c2C(F)(F)CCC3(F)F)ccc1F` [Compound 10, (S)-5-(5-(1-(2-(3-(difluoromethyl)-4,4,7,7-tetrafluoro-4,5,6,7-tetrahydro-1H-indazol-1-yl)acetamido)-2-(3,5-difluorophenyl)ethyl)-2-(oxetan-3-ylamino)thiazolo[4,5-b]pyridin-6-yl)-2-fluorobenzamide], 384 nM; to `NC(=O)c1cc(-c2cc3sc(N4CCn5cnnc5C4)nc3nc2[C@H](Cc2cc(F)cc(F)c2)NC(=O)Cn2nc(C(F)(F)F)c3c2C(F)(F)[C@@H]2C[C@H]32)ccc1F` [Compound 31, 5-(5-((S)-1-(2-((3bS,4aR)-5,5-difluoro-3-(trifluoromethyl)-3b,4,4a,5-tetrahydro-1H-cyclopropa[3,4]cyclopenta[1,2-c]pyrazol-1-yl)acetamido)-2-(3,5-difluorophenyl)ethyl)-2-(5,6-dihydro-[1,2,4]triazolo[4,3-a]pyrazin-7(8H)-yl)thiazolo[4,5-b]pyridin-6-yl)-2-fluorobenzamide], 466 nM.
To `CC(C)N1CCN(c2nc3nc([C@H](Cc4cc(F)cc(F)c4)NC(=O)Cn4nc(C(F)(F)F)c5c4C(F)(F)[C@@H]4C[C@H]54)c(-c4cccc5c(NS(C)(=O)=O)nn(C)c45)cc3s2)CC1` [Compound 64, 2-((3bS,4aR)-5,5-difluoro-3-(trifluoromethyl)-3b,4,4a,5-tetrahydro-1H-cyclopropa[3,4]cyclopenta[1,2-c]pyrazol-1-yl)-N—((S)-2-(3,5-difluorophenyl)-1-(2-(4-isopropylpiperazin-1-yl)-6-(1-methyl-3-(methylsulfonamido)-1H-indazol-7-yl)thiazolo[4,5-b]pyridin-5-yl)ethyl)acetamide] belongs 9.2 nM.
To `NC(=O)c1nc2nc(C(Cc3cc(F)cc(F)c3)NC(=O)Cn3nc(C(F)(F)F)c4c3C(F)(F)[C@@H]3C[C@H]43)c(-c3ccc(F)c(C(N)=O)c3)cc2s1` (stereo partly drawn) [Example 119, 6-(3-carbamoyl-4-fluorophenyl)-5-(1-(2-((3bS,4aR)-5,5-difluoro-3-(trifluoromethyl)-3b,4,4a,5-tetrahydro-TH-cyclopropa[3,4]cyclopenta[1,2-c]pyrazol-1-yl)acetamido)-2-(3,5-difluorophenyl)ethyl)thiazolo[4,5-b]pyridine-2-carboxamide] belongs 72 nM; to `NC(=O)c1cc(-c2cc3sc(N4CCC5(CC4)CNC(=O)O5)nc3nc2[C@H](Cc2cc(F)cc(F)c2)NC(=O)Cn2nc(C(F)(F)F)c3c2C(F)(F)[C@@H]2C[C@H]32)ccc1F` [Compound 29, 5-(5-((S)-1-(2-((3bS,4aR)-5,5-difluoro-3-(trifluoromethyl)-3b,4,4a,5-tetrahydro-1H-cyclopropa[3,4]cyclopenta[1,2-c]pyrazol-1-yl)acetamido)-2-(3,5-difluorophenyl)ethyl)-2-(2-oxo-1-oxa-3,8-diazaspiro[4.5]decan-8-yl)thiazolo[4,5-b]pyridin-6-yl)-2-fluorobenzamide], 121 nM.
`CCN1CCN(c2nc3nc([C@H](Cc4cc(F)cc(F)c4)NC(=O)Cn4nc(C(F)(F)F)c5c4C(F)(F)[C@@H]4C[C@H]54)c(-c4cccc5c(NS(C)(=O)=O)nn(C)c45)cc3s2)CC1` [Example 68, 2-((3bS,4aR)-5,5-difluoro-3-(trifluoromethyl)-3b,4,4a,5-tetrahydro-1H-cyclopropa[3,4]cyclopenta[1,2-c]pyrazol-1-yl)-N—((S)-2-(3,5-difluorophenyl)-1-(2-(4-ethylpiperazin-1-yl)-6-(1-methyl-3-(methylsulfonamido)-1H-indazol-7-yl)thiazolo[4,5-b]pyridin-5-yl)ethyl)acetamide] yielded an EC50 of 6.7 nM.
To `O=C(Cn1nc(C(F)(F)F)c2c1C(F)(F)[C@@H]1C[C@H]21)N[C@@H](Cc1cc(F)cc(F)c1)c1nc2nc(N3CCN(C4COC4)CC3)sc2cc1-c1ccc2c(c1)C(=O)NC2` [Compound 38, 2-((3bS,4aR)-5,5-difluoro-3-(trifluoromethyl)-3b,4,4a,5-tetrahydro-1H-cyclopropa[3,4]cyclopenta[1,2-c]pyrazol-1-yl)-N—((S)-2-(3,5-difluorophenyl)-1-(2-(4-(oxetan-3-yl)piperazin-1-yl)-6-(3-oxoisoindolin-5-yl)thiazolo[4,5-b]pyridin-5-yl)ethyl)acetamide] belongs 10.1 nM; to `Cn1nc(NS(C)(=O)=O)c2cccc(-c3cc4sc(N5CCOCC5)nc4nc3[C@H](Cc3cc(F)cc(F)c3)NC(=O)Cn3nc(C(F)(F)F)c4c3C(F)(F)[C@@H]3C[C@H]43)c21` [Example 82, 2-((3bS,4aR)-5,5-difluoro-3-(trifluoromethyl)-3b,4,4a,5-tetrahydro-1H-cyclopropa[3,4]cyclopenta[1,2-c]pyrazol-1-yl)-N—((S)-2-(3,5-difluorophenyl)-1-(6-(1-methyl-3-(methylsulfonamido)-1H-indazol-7-yl)-2-morpholinothiazolo[4,5-b]pyridin-5-yl)ethyl)acetamide], 6.6 nM; to `Cn1nc(NS(C)(=O)=O)c2cccc(-c3cc4sc(N5CCC(C)(O)C5)nc4nc3C(Cc3cc(F)cc(F)c3)NC(=O)Cn3nc(C(F)(F)F)c4c3C(F)(F)[C@@H]3C[C@H]43)c21` (stereo partly drawn) [Example 125, 2-((3bS,4aR)-5,5-difluoro-3-(trifluoromethyl)-3b,4,4a,5-tetrahydro-1H-cyclopropa[3,4]cyclopenta[1,2-c]pyrazol-1-yl)-N-(2-(3,5-difluorophenyl)-1-(2-(3-hydroxy-3-methylpyrrolidin-1-yl)-6-(1-methyl-3-(methylsulfonamido)-1H-indazol-7-yl)thiazolo[4,5-b]pyridin-5-yl)ethyl)acetamide], 17.4 nM.
To `O=C(Cn1nc(C(F)F)c2c1C1CC1CC2)N[C@@H](Cc1cc(F)cc(F)c1)c1nc2nc(N3CCN(c4ccc(-c5ncc[nH]5)cc4)CC3)sc2cc1-c1ccc2c(c1)C(=O)NC2` (stereo partly drawn) [Compound 35, N—((S)-1-(2-(4-(4-(1H-imidazol-2-yl)phenyl)piperazin-1-yl)-6-(3-oxoisoindolin-5-yl)thiazolo[4,5-b]pyridin-5-yl)-2-(3,5-difluorophenyl)ethyl)-2-(3-(difluoromethyl)-5,5a,6,6a-tetrahydrocyclopropa[g]indazol-1(4H)-yl)acetamide] belongs 31.9 nM; to `COCCNc1nc2nc([C@H](Cc3cc(F)cc(F)c3)NC(=O)Cn3nc(C(F)(F)F)c4c3C(F)(F)[C@@H]3C[C@H]43)c(-c3cccc4c(NS(C)(=O)=O)nn(C)c34)cc2s1` [Example 69, 2-((3bS,4aR)-5,5-difluoro-3-(trifluoromethyl)-3b,4,4a,5-tetrahydro-1H-cyclopropa[3,4]cyclopenta[1,2-c]pyrazol-1-yl)-N—((S)-2-(3,5-difluorophenyl)-1-(2-((2-methoxyethyl)amino)-6-(1-methyl-3-(methylsulfonamido)-1H-indazol-7-yl)thiazolo[4,5-b]pyridin-5-yl)ethyl)acetamide], 9.2 nM.
To `CC(C)(C)OC(=O)N1CCN(c2ccc(-c3nc4nc([C@H](Cc5cc(F)cc(F)c5)NC(=O)Cn5nc(C(F)(F)F)c6c5C(F)(F)[C@@H]5C[C@H]65)c(-c5ccc6c(c5)C(=O)NC6)cc4s3)cc2)CC1` [Compound 145, tert-butyl 4-(4-(5-((S)-1-(2-((3bS,4aR)-5,5-difluoro-3-(trifluoromethyl)-3b,4,4a,5-tetrahydro-1H-cyclopropa[3,4]cyclopenta[1,2-c]pyrazol-1-yl)acetamido)-2-(3,5-difluorophenyl)ethyl)-6-(3-oxoisoindolin-5-yl)thiazolo[4,5-b]pyridin-2-yl)phenyl)piperazine-1-carboxylate] belongs 370 nM.
